Assay results published in publication PMC4519324, “Substrate Specificity, Inhibitor Selectivity and Structure-Function Relationships of Aldo-Keto Reductase 1B15: A Novel Human Retinaldehyde Reductase” (PLoS ONE, 2015).
Read-outs that look alike come from different tables or passages of the source.

Key:
AKR1B15 [1] = biological target: T1, AKR1B15 (Homo sapiens, UniProt C9JRZ8); assay: Inhibition screening with D,L-glyceraldehyde as substrate; format: biochemical; settings: for IC50: 6 mM D,L-glyceraldehyde as substrate, 0.1% DMSO
T1 construct: made in house; host or cells: E. coli BL21(DE3), with or without chaperone plasmids pBB540/pBB542
T1 sequence (C9JRZ8 whole entry): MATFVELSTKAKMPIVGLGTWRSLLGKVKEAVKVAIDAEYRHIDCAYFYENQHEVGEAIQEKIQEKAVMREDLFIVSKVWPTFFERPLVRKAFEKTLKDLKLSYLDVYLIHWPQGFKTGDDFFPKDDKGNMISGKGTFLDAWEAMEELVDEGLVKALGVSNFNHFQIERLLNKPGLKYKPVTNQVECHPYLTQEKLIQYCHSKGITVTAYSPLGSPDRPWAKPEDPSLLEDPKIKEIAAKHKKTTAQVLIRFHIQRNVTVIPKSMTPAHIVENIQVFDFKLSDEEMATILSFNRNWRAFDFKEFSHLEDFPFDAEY
Method: (§1) Activities were determined in 100 mM sodium phosphate, pH 7.0, at 25°C, using 0.2 mM NADPH in 0.2-cm path length cuvettes, with freshly prepared substrate solutions. One unit of activity is defined as the amount of enzyme required to transform 1 μmol of substrate per min at 25°C.
(§2) All compounds tested as inhibitors were dissolved in DMSO and assayed in a final concentration of 0.1% (v/v) DMSO using 6 mM D,L-glyceraldehyde as a substrate. Kinetic constant and IC50 (compound concentration that inhibits enzymatic activity by 50%) values were calculated by fitting the initial rates to the appropriate equation using Grafit 5.0 (Eritacus Software) and values were given as the mean ± standard error of three experiments. Standard error values were less than 20% of the mean values.

AKR1B1 [2] = biological target: T2, AKR1B1 (Homo sapiens, UniProt P15121); settings: substrate, cited from earlier work; for Km: read-out: Km
T2 construct: made in house

AKR1B10 [3] = biological target: T3, AKR1B10 (Homo sapiens, UniProt O60218); settings: substrate; cited from earlier work
T3 construct: made in house
T3 sequence (O60218 whole entry): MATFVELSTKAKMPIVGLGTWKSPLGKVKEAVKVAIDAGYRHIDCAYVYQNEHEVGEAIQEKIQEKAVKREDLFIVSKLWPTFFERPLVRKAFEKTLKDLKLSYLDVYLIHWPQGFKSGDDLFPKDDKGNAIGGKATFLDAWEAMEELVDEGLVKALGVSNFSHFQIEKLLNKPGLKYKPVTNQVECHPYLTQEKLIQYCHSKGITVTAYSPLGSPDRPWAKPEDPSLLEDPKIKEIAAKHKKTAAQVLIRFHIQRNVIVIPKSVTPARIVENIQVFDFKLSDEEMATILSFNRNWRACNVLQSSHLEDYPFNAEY

AKR1B15 [4] = biological target: T1, AKR1B15; assay: Spectrophotometric activity assay (NADPH decrease at 340 nm), substrate kinetics; format: biochemical; settings: for Km / k cat: substrate, spectrophotometric, 0.2 mM NADPH; for Km: 100 mM sodium phosphate pH 7.0, 25°C, <1 values only approximate; for k cat: pH 7.0, 25°C
AKR1B1 [5] = biological target: T2, AKR1B1; settings: cited from earlier work
AKR1B10 [6] = biological target: T3, AKR1B10; settings: cited from earlier work
AKR1B15 [7] = biological target: T1, AKR1B15; assay: HPLC enzymatic activity assay with retinaldehyde isomers; format: biochemical; settings: HPLC-based method; for k cat: pH 7.4
Method: Activity assays with retinoids were carried out using an HPLC-based methodology. Briefly, retinaldehyde isomers were solubilized using glass tubes by a 10-min sonication at molar ratio 1:1 with fatty acid-free bovine serum albumin in 90 mM potassium phosphate, 40 mM potassium chloride, pH 7.4. The actual amount of solubilized retinoid was determined based on the corresponding molar absorption coefficient in aqueous solutions at the appropriate wavelength: ε400 = 29,500 M^−1·cm^−1 for all-trans-retinaldehyde and ε367 = 26,700 M^−1·cm^−1 for 9-cis-retinaldehyde. For retinol isomers, which were used as standards of the reaction product, their concentration was determined in hexane using ε325 = 51,770 M^−1·cm^−1 for all-trans-retinol and ε325 = 43,765 M^−1·cm^−1 for 9-cis-retinol. The reactions were started by the addition of cofactor and carried out for 15 min at 37°C in a final volume of 0.5 mL. With the aim to measure the steady-state enzymatic activity, the concentration of enzyme was kept from 25- to 100-fold lower than that of the substrate for all the enzymatic assays. The reactions were stopped by the addition of 1 mL of cold methanol and after two rounds of extraction with hexane, retinoids were analyzed by HPLC as previously described. All retinoid manipulations were performed under dim light.
as §2

AKR1B10 [8] = biological target: T3, AKR1B10; parameters: method as in PMID 18087047; settings: HPLC-based method; cited from earlier work
AKR1B1 [9] = biological target: T2, AKR1B1; parameters: method as in PMID 18087047; settings: HPLC-based method; cited from earlier work
AKR1B10 [10] = biological target: T3, AKR1B10; assay: Spectrophotometric activity assay (NADPH decrease at 340 nm), substrate kinetics; format: biochemical; settings: for k cat / Km: substrate, spectrophotometric; for Km: read-out: Km; for activity class: at saturating concentration of substrate for AKR1B15
CC(=O)CC(C)=O = assay: as above; format: biochemical, human; settings: other: AKR1B1, pH 7.0, 25.0 °C
Method: as §1, §2

CCC(=O)CC(=O)CC = assay: as above; format: biochemical, human; settings: other: AKR1B1, pH 7.0, 25.0 °C
Method: as §1, §2

CC(C)=CCC/C(C)=C/C=O = assay: as above; format: biochemical, human; settings: other: AKR1B1, pH 7.0, 25.0 °C
Method: as §1, §2

AKR1B1 [11] = biological target: T2, AKR1B1; assay: as above; format: biochemical; settings: for activity class: at saturating concentration of substrate for AKR1B15
Method: as §1, §2

Molecule	Km (AKR1B1 [2]) [µM]	k cat (min^−1) (AKR1B1 [2])	Km (AKR1B10 [3]) [µM]	k cat (min^−1) (AKR1B10 [3])	Km (AKR1B15 [4]; read-out: Km) [µM]	k cat (AKR1B15 [4]) [s⁻¹]	further results
CC1(C)CC[C@]2(C(=O)O)CC[C@]3(C)C(=CC[C@@H]4[C@@]5(C)CC[C@H](O)C(C)(C)[C@@H]5CC[C@]43C)[C@@H]2C1 [Oleanolic acid]							IC50 (AKR1B15 [1]): > 100 µM
CCCCCC(O)C=CC=O (stereo not drawn) [4-hydroxy-2-nonenal]	716	50 ^c min^−1	31	121 ^c min^−1	2.2	0.0867	
NC(=O)C1=CN([C@@H]2O[C@H](COP(=O)(O)OP(=O)(O)OC[C@H]3O[C@@H](n4cnc5c(N)ncnc54)[C@H](O)[C@@H]3O)[C@@H](O)[C@H]2O)C=CC1 [NADH]							enzymatic activity relative to that with NADPH (AKR1B15 [4]; 0.2 mM NADH): less than 5%
O=Cc1cccnc1 [pyridine-3-aldehyde]	10	61 ^b min^−1	13	150 ^b min^−1	2.9	0.15	
CC1=C(CC(=O)O)c2cc(F)ccc2/C1=C\c1ccc([S+](C)[O-])cc1 (stereo not drawn) [Sulindac]							IC50 (AKR1B1 [5]; AKR1B1, values in Table 3): < 10 µM; IC50 (AKR1B10 [6]; AKR1B10, values in Table 3): < 10 µM; IC50 (AKR1B15 [1]): > 100 µM
O=CC(O)CO (racemic) [D,L-glyceraldehyde]	50	31 ^a min^−1	6000	35 ^a min^−1	880	0.178	
CC(/C=C1\SC(=S)N(CC(=O)O)C1=O)=C\c1ccccc1 [Epalrestat]							IC50 (AKR1B15 [1]): > 50 µM
CC1=C(/C=C/C(C)=C\C=C\C(C)=C\C=O)C(C)(C)CCC1 [9-cis-retinaldehyde]							k cat (AKR1B15 [7]; 37°C): 0.0633 ± 0.0033 s⁻¹; Km (AKR1B15 [7]; 37°C, pH 7.4, read-out: Km): 0.16 ± 0.03 µM; Km (AKR1B15 [7]; read-out: Km value): 0.16 µM; Km (AKR1B10 [8]): 0.7 ± 0.1 µM; k cat (AKR1B10 [8]): 0.015 ± 0.0017 s⁻¹; Km (AKR1B1 [9]): 0.4 ± 0.1 µM; k cat (AKR1B1 [9]): 0.012 ± 0.0033 s⁻¹
CC1=C(/C=C/C(C)=C/C=C/C(C)=C/C=O)C(C)(C)CCC1 [All-trans-retinaldehyde]							k cat (AKR1B15 [7]; 37°C): 0.09 ± 0.0083 s⁻¹; Km (AKR1B15 [7]; 37°C, pH 7.4, read-out: Km): 1 ± 0.3 µM; Km (AKR1B10 [8]): 0.6 ± 0.1 µM; k cat (AKR1B10 [8]): 0.45 ± 0.017 s⁻¹; Km (AKR1B1 [9]): 1.1 ± 0.1 µM; k cat (AKR1B1 [9]): 0.015 ± 0.0017 s⁻¹
CCCCCC=O [hexanal]	5	28 ^b min^−1	112	142 ^b min^−1	3.1	0.122	
Oc1c(F)c(F)c(-c2c(F)c(F)c(O)c(F)c2F)c(F)c1F [JF0064, 2,2’,3,3’,5,5’,6,6’-octafluoro-4,4’-biphenyldiol]							IC50 (AKR1B1 [5]; AKR1B1, values in Table 3): < 10 µM; IC50 (AKR1B10 [6]; AKR1B10, values in Table 3): < 10 µM; IC50 (AKR1B15 [1]): 0.034 ± 0.005 µM
O=C1NC(=O)[C@@]2(CCOc3ccc(F)cc32)N1 [Sorbinil]							IC50 (AKR1B15 [1]): > 100 µM
C=CC=O [acrolein]	884	11 ^c min^−1	110	116 ^c min^−1	36	0.147	
CC(C)=CCCC(C)=CC=O (mixture of isomers) [citral]					1.5	0.0917	k cat (AKR1B10 [10]): 0.583 s⁻¹; Km (AKR1B10 [10]): 4.5 µM
CC(=O)CC(C)=O [2,4-pentanedione]					40	0.0367	k cat (AKR1B10 [10]): 0.143 s⁻¹; Km (AKR1B10 [10]): 58900 µM
CCC/C=C/C=O [trans-2-hexenal]	9	16 ^b min^−1	28	49 ^b min^−1	5	0.188	
CC(=O)C(C)=O [2,3-butanedione]	110	23 ^d min^−1	540	260 ^d min^−1	< 1	0.177	
AKR1B1 (Homo sapiens)							Km (CC(=O)CC(C)=O): 8,100 μM; kcat (CC(=O)CC(C)=O): 0.278 s⁻¹; kcat/Km (CC(=O)CC(C)=O): 36.7 M⁻¹ s⁻¹; Km (CCC(=O)CC(=O)CC): 12,000 μM; kcat (CCC(=O)CC(=O)CC): 0.433 s⁻¹; kcat/Km (CCC(=O)CC(=O)CC): 36.7 M⁻¹ s⁻¹; Km (CC(C)=CCC/C(C)=C/C=O): 35 µM; kcat (CC(C)=CCC/C(C)=C/C=O): 1.13 s⁻¹; kcat/Km (CC(C)=CCC/C(C)=C/C=O): 29200 M⁻¹ s⁻¹
CCCCCCCCCCCC(=O)N(C)CC(=O)[O-].[Na+] [Sarkosyl, sodium N-lauroylsarcosinate]							inhibition model (AKR1B15 [1]; data not shown): non-competitive
O=Cc1ccccc1 [benzaldehyde]	21	91 ^b min^−1	9.7	104 ^b min^−1		0.202	Km (AKR1B15 [4]): < 1 µM
CCCC(=O)C(C)=O [2,3-hexanedione]	17	49 ^b min^−1	51	79 ^b min^−1	< 1	0.158	
OC[C@H]1OC(O)[C@H](O)[C@@H](O)[C@@H]1O (stereo partly drawn) [glucose]							rate of reduction (AKR1B1 [11]; 200 mM glucose): 500 mU/mg; rate of reduction (AKR1B15 [4]; 200 mM glucose): 12 mU/mg
CCC(C)=O [2-butanone]					780	0.175	activity class (AKR1B10 [10]): LA (LA, low activity (≤ 10 mU/mg) was detected at saturating concentration of substrate for AKR1B15); activity class (AKR1B1 [11]): LA (LA, low activity (≤ 10 mU/mg) was detected at saturating concentration of substrate for AKR1B15)
C=CC(C)=O [3-buten-2-one]					21.3	0.137	activity class (AKR1B10 [10]): LA (LA, low activity (≤ 10 mU/mg) was detected at saturating concentration of substrate for AKR1B15); activity class (AKR1B1 [11]): LA (LA, low activity (≤ 10 mU/mg) was detected at saturating concentration of substrate for AKR1B15)
O=C1C=CCCC1 [2-cyclohexen-1-one]					365	0.0735	activity class (AKR1B10 [10]): LA (LA, low activity (≤ 10 mU/mg) was detected at saturating concentration of substrate for AKR1B15); activity class (AKR1B1 [11]): LA (LA, low activity (≤ 10 mU/mg) was detected at saturating concentration of substrate for AKR1B15)
CC(C)=CCCC(C)=CCCC(C)=CC=O [farnesal]	37	27 ^b min^−1	2.3	30 ^b min^−1	< 1	0.08	
O=C/C=C/c1ccccc1 [cinnamaldehyde]					< 1	0.222	k cat (AKR1B10 [10]): 4 s⁻¹; Km (AKR1B10 [10]): 34.7 µM; Km (AKR1B1 [11]; substrate, spectrophotometric): 31 µM; k cat (AKR1B1 [11]; substrate, spectrophotometric): 0.483 s⁻¹
C[C@H](CCC(=O)O)[C@H]1CC[C@H]2[C@@H]3CC[C@@H]4C[C@H](O)CC[C@]4(C)[C@H]3CC[C@]12C [Lithocholic acid]							IC50 (AKR1B1 [5]; AKR1B1): 7.2 µM; IC50 (AKR1B10 [6]; AKR1B10): 0.12 µM; selectivity between AKR1B10 and AKR1B1 (AKR1B10 [6]; in words): more selective against AKR1B10; IC50 (AKR1B15 [1]): 16.3 ± 7.6 µM
CCCCCC=CC(C)=O [3-nonen-2-one]					1.7	0.113	activity class (AKR1B10 [10]): LA (LA, low activity (≤ 10 mU/mg) was detected at saturating concentration of substrate for AKR1B15); activity class (AKR1B1 [11]): LA (LA, low activity (≤ 10 mU/mg) was detected at saturating concentration of substrate for AKR1B15)
CCC(=O)CC(=O)CC [3,5-heptanedione]					1300	0.0883	Km (AKR1B10 [10]): > 50000 µM
